{
  "source": "patent US7462605B2",
  "about": "“Phosphoramidate compounds and methods of use” (Celmed Oncology (USA), Inc., priority 2002, dated 2008)",
  "key": {"[1]": {"tested_on": "C/HT1080 cells", "experiment": "alamarBlue cytotoxicity, control-transfected HT1080", "type": "cell-based, human", "conditions": "C/HT1080, TS Level 100%", "procedure": "(§1) Cell lines and transfection. HT1080 cells were grown in PRM11640 medium supplemented with 10% fetal calf serum, and transfected with GFP-TS expression vector. 48 hours after, transfection cells were tripsinized and replated in culture medium containing 750 μg/ml G418. After selection with G418 for two weeks, surviving cells were sorted based upon fluorescence expression. One clone with higher fluorescence expression (named as TSH/HT1080) and one clone with lower fluorescence expression (named as TSL/HT1080) were selected and expanded into cells lines. The stable HT1080 cells transfected with pEGFP-C3 were used as control.\n(§2) Construction of GFP-TS expression vector. […] The cDNA was cloned into HindIII and KpnI sites of mammalian expression vector pEGFP-C3 (Clontech Laboratories. Inc., Palo Alto, Calif.), in-frame with GFP sequence. The cDNA insert was confirmed by DNA sequencing.\n(§3) Growth Inhibition Studies. Cells growing exponentially were transferred to 384-well flat bottom tissue culture plates. All cell types were plated at a density of 500 cells per well in 25 μL of complete medium (RPMI 1640+10% fetal bovine serum+antibiotics/antimycotics). […] After 4 hours incubation at 37° C., fluorescence was monitored at 535 nm excitation and 595 nm emission.\n(§4) Concentration vs. relative fluorescence units (RFU) were plotted, and sigmoid curves were fit using the Hill equation."}, "[2]": {"tested_on": "NHDF (Skin) normal cells", "experiment": "alamarBlue growth inhibition, NHDF", "type": "cell-based, human", "conditions": "120 hours", "procedure": "(§5) Growth Inhibition Studies. Cells growing exponentially were transferred to 384-well flat bottom tissue culture plates. All cell types were plated at a density of 500 cells per well in 25 μL of complete medium (RPMI 1640+10% fetal bovine serum+antibiotics/antimycotics). After 24 hours (day 0), 25 μL of complete medium containing the experimental compounds over the dose range of 10^ñ3 to 10^ñ10 M were added in triplicate. […] 5 μL of the redox indicator, alamarBlue, was added to each well (10% v/v). After 4 hours incubation at 37° C., fluorescence was monitored at 535 nm excitation and 595 nm emission.\nas §4"}, "[3]": {"tested_on": "DET551 (Skin) normal cells", "experiment": "alamarBlue growth inhibition, DET551", "type": "cell-based, human", "conditions": "120 hours", "procedure": "as §5, §4"}, "[4]": {"tested_on": "SKOV3 (Ovary) tumor cells", "experiment": "alamarBlue growth inhibition, SKOV3", "type": "cell-based, human", "conditions": "120 hours", "procedure": "as §5, §4"}, "[5]": {"tested_on": "HT1080 (Colon) tumor cells", "experiment": "alamarBlue growth inhibition, HT1080", "type": "cell-based, human", "conditions": "120 hours", "procedure": "as §5, §4"}, "[6]": {"tested_on": "SW620 (Colon) tumor cells", "experiment": "alamarBlue growth inhibition, SW620", "type": "cell-based, human", "conditions": "120 hours", "procedure": "as §5, §4"}, "[7]": {"tested_on": "MDAMB468 (Breast) tumor cells", "experiment": "alamarBlue growth inhibition, MDAMB468", "type": "cell-based, human", "conditions": "120 hours", "procedure": "as §5, §4"}, "[8]": {"tested_on": "H630R10 (5FU Resistant) human colon carcinoma", "experiment": "H630-10 5-FU resistant colon carcinoma xenografts in athymic mice", "conditions": "1.25, 2.5, 3.5 mg daily × 5 days, IP or IT/peritumoral; from Day 6 to Day 25", "quoted_text": "Tumor measurements began on the first day of treatment (Day 1).\nFollowing cell expansion ex-vivo H630-10 were injected subcutaneously (S.Q.) at 1.5×10^7 cells/tumor in the mid-back region of 4-6 week old, female, CD-1 (nu/nu), athymic mice (Charles River Laboratories, Wilmington, Mass.). Tumor volumes, calculated as the product of length, width, and depth, were monitored twice weekly by serial micrometer measurements by a single observer. Six animals were randomly assigned to each treatment group and statistical tests were performed (single-factor ANOVA) to assure uniformity in starting tumor volumes between treatment and control groups at the beginning of the experiment. […] To assure accurate dosing, drug doses were individualized based upon animal weights determined immediately prior to each injection. […] Differences in day 25 xenograft volumes between groups were analyzed by single-factor ANOVA of the log transformed tumor volume data."}, "[9]": {"tested_on": "MCF7 (Breast) tumor cells", "experiment": "alamarBlue growth inhibition, MCF7", "type": "cell-based, human", "procedure": "as §5, §4"}, "[10]": {"tested_on": "NHOST (Bone) normal cells", "experiment": "alamarBlue growth inhibition, NHOST", "type": "cell-based, human", "conditions": "120 hours", "procedure": "as §5, §4"}, "[11]": {"tested_on": "SKLU1 (Lung) tumor cells", "experiment": "alamarBlue growth inhibition, SKLU1", "type": "cell-based, human", "conditions": "120 hours", "procedure": "as §5, §4"}, "[12]": {"tested_on": "TSH/HT1080 cells", "experiment": "alamarBlue cytotoxicity, HT1080 expressing high GFP-TS", "type": "cell-based, human", "conditions": "second line printed TSL/HT1080, TS Level 702%", "procedure": "as §1, §2, §3, §4"}, "[13]": {"tested_on": "NHLF (Lung) normal cells", "experiment": "alamarBlue growth inhibition, NHLF", "type": "cell-based, human", "conditions": "120 hours", "procedure": "as §5, §4"}, "[14]": {"tested_on": "TDX-resistant MCF7 breast tumor cells", "experiment": "Tomudex inhibition of NB1011 cytotoxicity (Tomudex rescue assay, alamarBlue)", "conditions": "for IC50: read-out: NB1011 IC50", "procedure": "Tomudex Inhibition of NB1011 Cytotoxicity. MCF7-TDX were transferred to a 384 well assay plate at 500 cells in 25 μL complete medium per well. After 24 hours (day 0), 25 μL complete medium containing a combination of NB1011 in doubling serial dilutions from 1 mM and tomudex at discrete concentrations (0,1,10,100,1000 nM) were added in duplicate. Drug exposure time was 120 hours (day 5) after which growth inhibition was measured with alamarBlue as described above in Growth Inhibition Studies (above).\nTomudex is a chemotherapeutic that acts primarily via inhibition of TS. If NB1011 exerts cytotoxicity via the TS enzyme, then inhibition of TS with Tomudex should decrease NB1011-mediated cytotoxicity. […] Cells were plated and exposed to indicated concentrations of compound(s) as described above."}, "[15]": {"tested_on": "H527 (Skin) normal cells", "experiment": "alamarBlue growth inhibition, H527", "type": "cell-based, human", "conditions": "120 hours", "procedure": "as §5, §4"}, "[16]": {"tested_on": "MCIxc (Brain) tumor cells", "experiment": "alamarBlue growth inhibition, MCIxc", "type": "cell-based, human", "conditions": "120 hours", "procedure": "as §5, §4"}, "[17]": {"tested_on": "CCD18co normal colon epithelial cells", "experiment": "Thymidine rescue, alamarBlue cytotoxicity", "type": "cell-based, human", "conditions": "in the presence of 10 μM thymidine", "description": "An additional approach was taken to understanding whether NB1011 might interfere with cell growth primarily by inactivating TS. This approach is based upon thymidine rescue of TS-blocked cells. […] For this reason, they survive only by scavenger mechanisms. One of the important scavenger mechanisms is utilization of extracellular thymidine. Thymidine incorporated by target cells can be converted to dTMP, usually by thymidine kinase, and thus continue DNA synthesis. Other pathways for use of exogenous thymidine have also been described If an important mechanism for NB1011 activity is via inhibition of endogenous TS, then the cytotoxicity should be relieved when thymidine is added to the cell culture media. For this experiment, a number of tumor cell lines were screened for their sensitivity to Tomudex and 5FdUrd, and ability to be rescued from these agents via thymidine supplementation. […] Experiments were carried out as described by (Patterson, et al. (1998)) with or without 10 μM thymidine, except that the alamarBlue assay was employed to determine cytotoxicity."}, "[18]": {"tested_on": "NHEPF (Liver) normal cells", "experiment": "alamarBlue growth inhibition, NHEPF", "type": "cell-based, human", "conditions": "120 hours", "procedure": "as §5, §4"}, "[19]": {"tested_on": "A431 (Skin) tumor cells", "experiment": "alamarBlue growth inhibition, A431", "type": "cell-based, human", "conditions": "120 hours", "procedure": "as §5, §4"}},
  "note": "Where two headings read alike, the source gives them in different places.",
  "data": [
    {"substance": "5-(2-Bromovinyl)-2′-deoxyuridine phenyl N-methoxy-L-alaninyl phosphoramidate [NB1011]", "values": [
      {"measurement": "IC50", "setting": "[1]", "value": 320, "unit": "µM"},
      {"measurement": "IC50", "setting": "[2]", "value": 359, "unit": "µM"},
      {"measurement": "IC50", "setting": "[3]", "value": 262, "unit": "µM"},
      {"measurement": "IC50", "setting": "[4]", "value": 484, "unit": "µM"},
      {"measurement": "IC50", "setting": "[5]", "value": 449, "unit": "µM"},
      {"measurement": "IC50", "setting": "[6]", "value": 374, "unit": "µM"},
      {"measurement": "IC50", "setting": "[7]", "value": 172, "unit": "µM"},
      {"measurement": "tumor growth (xenograft volume)", "setting": "[8]", "value": "significant difference between the NB1011 groups vs. either the 5FU or excipient controls"},
      {"measurement": "IC50", "setting": "[9]; MCF7, alamarBlue, read-out: IC50", "value": 291, "unit": "µM"},
      {"measurement": "IC50", "setting": "[9]; MCF7 Breast cancer, Drug Selection None, read-out: NB1011-IC50", "value": 327, "unit": "µM"},
      {"measurement": "IC50", "setting": "[9]; Tumor Cells: MCF7 (Breast), alamarBlue, 120 hours, read-out: IC50", "value": 141, "unit": "µM"},
      {"measurement": "IC50", "setting": "[10]", "value": 642, "unit": "µM"},
      {"measurement": "IC50", "setting": "[11]", "value": 270, "unit": "µM"},
      {"measurement": "IC50", "setting": "[12]", "value": 0.8, "unit": "µM"},
      {"measurement": "IC50", "setting": "[13]", "value": 139, "unit": "µM"},
      {"measurement": "inhibition of NB1011-mediated cytotoxicity by blockade of TS with Tomudex", "setting": "[14]; maximum (up to)", "value": "about 25 fold"},
      {"measurement": "IC50", "setting": "[14]; [Tomudex] 0 nM", "value": 5.7, "unit": "µM"},
      {"measurement": "IC50", "setting": "[14]; [Tomudex] 1 nM", "value": 25.5, "unit": "µM"},
      {"measurement": "IC50", "setting": "[14]; [Tomudex] 10 nM", "value": 87.7, "unit": "µM"},
      {"measurement": "IC50", "setting": "[14]; [Tomudex] 100 nM", "value": 140, "unit": "µM"},
      {"measurement": "IC50", "setting": "[14]; [Tomudex] 1000 nM", "value": 103, "unit": "µM"},
      {"measurement": "IC50", "setting": "[15]", "value": 273, "unit": "µM"},
      {"measurement": "IC50", "setting": "[16]", "value": 61, "unit": "µM"},
      {"measurement": "IC50", "setting": "[17]", "value": 223, "unit": "µM"},
      {"measurement": "IC50", "setting": "[18]", "value": 2080, "unit": "µM"},
      {"measurement": "IC50", "setting": "[19]", "value": 266, "unit": "µM"}
    ]}
  ]
}
